According to patent publication US20260042731A1, “(2,4-DICHLOROPHENOXY)ACETIC ACID ANALOGS” (CORTEVA AGRISCIENCE LLC, priority 2022, published 2026):
Like-named read-outs stand apart in the source and are kept apart here.

What was measured:
[1] = system: Amaranthus rudis (AMATA), tall water hemp; assay: Postemergence herbicide evaluation, growth of Amaranthus rudis (AMATA); format: in vivo; conditions: Amaranthus tuberculatus, post-emergence, read-out: Ave. AMATA, percent reduction in plant size relative to the untreated control; for pest or weed control at 280 g/ha: 280 g ae/ha; for pest or weed control at 560 g/ha: 560 g ae/ha
[2] = system: Ambrosia artemisiifolia (AMBEL), common ragweed; assay: Postemergence herbicide evaluation, growth of Ambrosia artemisiifolia (AMBEL); format: in vivo; conditions: Ambrosia artemisiifolia, post-emergence, read-out: AVE. AMBEL, percent reduction in plant size relative to the untreated control; for pest or weed control at 280 g/ha: 280 g ae/ha; for pest or weed control at 560 g/ha: 560 g ae/ha
[3] = system: Abutilon theophrasti (ABUTH), velvetleaf; assay: Postemergence herbicide evaluation, growth of Abutilon theophrasti (ABUTH); format: in vivo; conditions: Abutilon theophrasti, post-emergence, read-out: AVE. ABUTH, percent reduction in plant size relative to the untreated control; for pest or weed control at 280 g/ha: 280 g ae/ha; for pest or weed control at 560 g/ha: 560 g ae/ha
[4] = system: Chenopodium album (CHEAL), common lambsquarters; assay: Postemergence herbicide evaluation, growth of Chenopodium album (CHEAL); format: in vivo; conditions: Chenopodium album, post-emergence, read-out: Ave. CHEAL, percent reduction in plant size relative to the untreated control; for pest or weed control at 280 g/ha: 280 g ae/ha; for pest or weed control at 560 g/ha: 560 g ae/ha
[5] = system: glyphosate resistant Conyza canadensis (L.) (ERICA), horseweed; assay: Postemergence herbicide evaluation, growth of Conyza canadensis (ERICA); format: in vivo; conditions: Erigeron canadensis, post-emergence, read-out: Ave. ERICA, percent reduction in plant size relative to the untreated control; for pest or weed control at 280 g/ha: 280 g ae/ha; for pest or weed control at 560 g/ha: 560 g ae/ha
[6] = Volatility of compounds measured by thermogravimetric analysis (TGA); format: physicochemical
[7] = system: Corn (ZEAMX); assay: Greenhouse post-emergence mixture trials, percent visual control; format: in vivo; conditions: ZEAMX, 21 DAA
[8] = system: Common Lambsquarters (CHEAL); assay: as above; format: in vivo; conditions: CHEAL, 21 DAA
[9] = system: weeds ABUTH, AMATA, AMBEL, CHEAL, ERICA; assay: Postemergence herbicide evaluation, overall average % weed control (ABUTH, AMATA, AMBEL, CHEAL, ERICA); format: in vivo; conditions: post-emergence, read-out: Overall Ave % Weed Control; for pest or weed control at 280 g/ha: 280 g ae/ha; for pest or weed control at 560 g/ha: 560 g ae/ha
[10] = system: Velvetleaf (ABUTH); assay: Greenhouse post-emergence mixture trials, percent visual control; format: in vivo; conditions: ABUTH, 21 DAA

`O=C(COc1ccc(Cl)cc1Cl)Nc1ccon1` [Compound D2, 2-(2,4-Dichlorophenoxy)-N-(isoxazol-3-yl)acetamide] showed a pest or weed control at 280 g/ha ([1]; 168 h, 7 DAA) of 70%, a pest or weed control at 560 g/ha ([1]; 168 h, 7 DAA) of 78% and a pest or weed control at 280 g/ha ([1]; 336 h, 14 DAA) of 85%. The pest or weed control at 560 g/ha ([1]; 336 h, 14 DAA) was 92%, the pest or weed control at 280 g/ha ([1]; 504 h, 21 DAA) was 94% and the pest or weed control at 560 g/ha ([1]; 504 h, 21 DAA) was 97%. The pest or weed control at 280 g/ha ([2]; 168 h, 7 DAA) was 68%, the pest or weed control at 560 g/ha ([2]; 168 h, 7 DAA) was 73% and the pest or weed control at 280 g/ha ([2]; 336 h, 14 DAA) was 89%. The pest or weed control at 560 g/ha ([2]; 336 h, 14 DAA) was 97%, the pest or weed control at 280 g/ha ([2]; 504 h, 21 DAA) was 100% and the pest or weed control at 560 g/ha ([2]; 504 h, 21 DAA) was 97%. It also gave a pest or weed control at 280 g/ha ([3]; 168 h, 7 DAA) of 78%, a pest or weed control at 560 g/ha ([3]; 168 h, 7 DAA) of 88% and a pest or weed control at 280 g/ha ([3]; 336 h, 14 DAA) of 83%. The pest or weed control at 560 g/ha ([3]; 336 h, 14 DAA) was 93%, the pest or weed control at 280 g/ha ([3]; 504 h, 21 DAA) was 80% and the pest or weed control at 560 g/ha ([3]; 504 h, 21 DAA) was 99%. For the same compound, the pest or weed control at 280 g/ha ([4]; 168 h, 7 DAA) was 70%, the pest or weed control at 560 g/ha ([4]; 168 h, 7 DAA) was 73% and the pest or weed control at 280 g/ha ([4]; 336 h, 14 DAA) was 73%. It also gave a pest or weed control at 560 g/ha ([4]; 336 h, 14 DAA) of 88%, a pest or weed control at 280 g/ha ([4]; 504 h, 21 DAA) of 78% and a pest or weed control at 560 g/ha ([4]; 504 h, 21 DAA) of 97%. The pest or weed control at 280 g/ha ([5]; 168 h, 7 DAA) was 68%, the pest or weed control at 560 g/ha ([5]; 168 h, 7 DAA) was 73% and the pest or weed control at 280 g/ha ([5]; 336 h, 14 DAA) was 88%. It also gave a pest or weed control at 560 g/ha ([5]; 336 h, 14 DAA) of 94%, a pest or weed control at 280 g/ha ([5]; 504 h, 21 DAA) of 91% and a pest or weed control at 560 g/ha ([5]; 504 h, 21 DAA) of 99%. The “TGA Data (rate of weight loss, volatility)” value [6] was 0.2 µg/min, the “% Control” value ([7]; Trial Bridge 1, compound 1120 g ae/ha + Glufosinate 600 g ai or ae/ha) was 5% and the plant injury at 560 g/ha ([7]; Zea mays, post-emergence, 504 h, compound 560 g ae/ha, no mixing partner, Trial Bridge 3) was 5%. The “% Control” value ([8]; Trial Bridge 2, compound 560 g ae/ha + Saflufenacil 75 g ai or ae/ha) was 100%, the pest or weed control at 280 g/ha ([9]; 168 h, 7 DAA) was 71% and the pest or weed control at 560 g/ha ([9]; 168 h, 7 DAA) was 77%. The pest or weed control at 280 g/ha ([9]; 336 h, 14 DAA) was 83%, the pest or weed control at 560 g/ha ([9]; 336 h, 14 DAA) was 92% and the pest or weed control at 280 g/ha ([9]; 504 h, 21 DAA) was 88%. It also gave a pest or weed control at 560 g/ha ([9]; 504 h, 21 DAA) of 98%.
`CC(C)N(C)S(=O)(=O)NC(=O)c1cc(-n2c(=O)cc(C(F)(F)F)n(C)c2=O)c(F)cc1Cl` [Saflufenacil, reference compound] gave a plant injury at 50 g/ha ([7]; Zea mays, post-emergence, 504 h, Trial 1 Trt 9, B2 0 g ae/ha, Saflufenacil 50 g ai or ae/ha alone) of 50%, a plant injury at 75 g/ha ([7]; Zea mays, post-emergence, 504 h, Trial 1 Trt 13, B2 0 g ae/ha, Saflufenacil 75 g ai or ae/ha alone) of 45% and a pest or weed control at 50 g/ha ([8]; Chenopodium album, post-emergence, 504 h, Trial 1, Trt 9, B2 0 g ae/ha, Saflufenacil 50 g ai or ae/ha alone) of 95%. For the same compound, the pest or weed control at 75 g/ha ([8]; Chenopodium album, post-emergence, 504 h, Trial 1, Trt 13, B2 0 g ae/ha, Saflufenacil 75 g ai or ae/ha alone) was 98%, the pest or weed control at 25 g/ha ([10]; Abutilon theophrasti, post-emergence, 504 h, Trial 1, Trt 5, B2 0 g ae/ha, Saflufenacil 25 g ai or ae/ha alone) was 100% and the pest or weed control at 50 g/ha ([10]; Abutilon theophrasti, post-emergence, 504 h, Trial 1, Trt 9, B2 0 g ae/ha, Saflufenacil 50 g ai or ae/ha alone) was 100%. It also gave a pest or weed control at 75 g/ha ([10]; Abutilon theophrasti, post-emergence, 504 h, Trial 1, Trt 13, B2 0 g ae/ha, Saflufenacil 75 g ai or ae/ha alone) of 100%.
`Cc1nn(-c2cc(NS(C)(=O)=O)c(Cl)cc2Cl)c(=O)n1C(F)F` [Sulfentrazone, N-[2,4-dichloro-5-[4-(difluoromethyl)-4,5-dihydro-3-methyl-5-oxo-1H-1,2,4-triazol-1-yl]phenyl]-methane-sulfonamide, reference compound] gave a plant injury at 420 g/ha ([7]; Zea mays, post-emergence, 504 h, Trial 1 Trt 25, B2 0 g ae/ha, Sulfentrazone 420 g ai or ae/ha alone) of 25%, a plant injury at 140 g/ha ([7]; Zea mays, post-emergence, 504 h, Sulfentrazone 140 g ai or ae/ha alone (B2 rate 0), Trial Bridge 3) of 40% and a plant injury at 210 g/ha ([7]; Zea mays, post-emergence, 504 h, Sulfentrazone 210 g ai or ae/ha alone (B2 rate 0), Trial Bridge 3) of 40%. For the same compound, the pest or weed control at 140 g/ha ([8]; Chenopodium album, post-emergence, 504 h, Trial Bridge 3, Sulfentrazone 140 g ai/ha alone (B2 rate 0)) was 99%, the pest or weed control at 210 g/ha ([8]; Chenopodium album, post-emergence, 504 h, Trial Bridge 3, Sulfentrazone 210 g ai/ha alone (B2 rate 0)) was 88% and the pest or weed control at 420 g/ha ([8]; Chenopodium album, post-emergence, 504 h, Trial Bridge 3, Sulfentrazone 420 g ai/ha alone (B2 rate 0)) was 100%. For the same compound, the pest or weed control at 210 g/ha ([8]; Chenopodium album, post-emergence, 504 h, Trial 1, Trt 21, B2 0 g ae/ha, Sulfentrazone 210 g ai or ae/ha alone) was 100%, the pest or weed control at 420 g/ha ([8]; Chenopodium album, post-emergence, 504 h, Trial 1, Trt 25, B2 0 g ae/ha, Sulfentrazone 420 g ai or ae/ha alone) was 99% and the “% Control” value ([10]; Sulfentrazone 210 g ai/ha alone (compound rate 0 g ae/ha), Trial Bridge 3) was 100%. It also gave a pest or weed control at 140 g/ha ([10]; Abutilon theophrasti, post-emergence, 504 h, Sulfentrazone 140 g ai/ha alone (compound rate 0 g ae/ha), Trial Bridge 3) of 98%, a pest or weed control at 210 g/ha ([10]; Abutilon theophrasti, post-emergence, 504 h, Sulfentrazone 210 g ai/ha alone (compound rate 0 g ae/ha), Trial Bridge 3) of 100% and a pest or weed control at 216 g/ha ([10]; Abutilon theophrasti, post-emergence, 504 h, Sulfentrazone 216 g ai/ha alone (compound rate 0 g ae/ha), Trial Bridge 3) of 8%. It also gave a pest or weed control at 420 g/ha ([10]; Abutilon theophrasti, post-emergence, 504 h, Trial 1, Trt 25, B2 0 g ae/ha, Sulfentrazone 420 g ai or ae/ha alone) of 80%.
